Reference: US20050288347A1, “Certain triazole-based compounds, compositions, and uses thereof” (priority 2004, published 2005)
Entries after “also recorded” stand apart in the source; their conditions may differ. Read-outs that look alike come from different tables or passages of the source.

Target: protein kinase
Experiment: HTS ATP-utilizing enzyme assay, off-chip mobility-shift format (Caliper HTS 250)
Assay type: biochemical, human
Details: for Kinase: kinase(s) for which the compound exhibits protein kinase inhibitory activity, active = greater than three-sigma from the mean activity of inactive compounds
Method in brief: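 Kinase reactions ran 2.5 h at 20 to 22 °C with test compound at 10 μM, in a HEPES pH 7.5 master buffer containing Triton X-100 and BSA. Peptide substrate and phosphorylated product separated by mobility shift; inhibition normalized to DMSO (0%) and EDTA (100%) controls, with three-sigma thresholds for hits.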

[1] = test compound 10 μM, active = activity greater than three-sigma from the mean of the predominately inactive population for that enzyme

For `Cc1ccc(-n2c(CNc3ccc(F)cc3)nnc2SCC(=O)O)cc1`, the Kinase (test compound 10 μM) was “DAPK1; also recorded: AURORA-A”.

For `Cn1c(SCC(=O)OC2CCCCC2)nnc1-c1ccc(O)cc1`, the Kinase (test compound 10 μM) was “GSK3-α”.

`COc1ccccc1-n1c(SCCC(=O)Nc2cc(NC(=O)c3ccco3)ccc2C)nnc1-c1ccccc1` was tested, and the “protein kinase against which the compound exhibits inhibitory activity (Table 3)” value was “MAPKAPK-3”.

`O=C(CSc1nnc(-c2ccncc2)n1CC1CCCO1)Nc1nccs1` (stereo not shown) was tested, and the Kinase (test compound 10 μM) was “GSK3-β and GSK3-α and ABL1”.

With `Cn1c(SCC(=O)Nc2sc3c(c2C#N)CCCC3)nnc1-c1ccc(O)cc1` the Kinase (test compound 10 μM) was “PRAK and CDK2-cyclinE and DYRK2”.

`Cc1ccc(NCc2nnc(SCc3ccccc3)n2C)cc1` was tested, and the “protein kinase against which the compound exhibits inhibitory activity (Table 3)” value [1] was “AURORA-A”.

For `O=C(CSc1nnc(-c2ccco2)n1-c1ccccc1)NCCc1ccccc1` [2-(5-(furan-2-yl)-4-phenyl-4H-1,2,4-triazol-3-ylthio)-N-phenethylacetamide], the Kinase (test compound 10 μM) was “AKT1”.

`CCn1c(SCC#N)nnc1C1CCCCC1` [2-(5-cyclohexyl-4-ethyl-4H-1,2,4-triazol-3-ylthio)acetonitrile] was tested, and the Kinase (test compound 10 μM) was “AURORA-A and MSK1”.

In the case of `COCCCn1c(C)nnc1SCc1ccc(C(C)(C)C)cc1` [3-(4-tert-butylbenzylthio)-4-(3-methoxypropyl)-5-methyl-4H-1,2,4-triazole], the “protein kinase against which the compound exhibits inhibitory activity (Table 3)” value [1] was “MAPKALPK-2 and AKT1”.

With `CCn1c(CNc2ccc(OC)cc2)nnc1SCC(=O)Nc1ccccc1-c1ccccc1` the Kinase (test compound 10 μM) was “PDGFRR-α and FYN and GSK3-β”.

`CSc1nnc(-c2ccc(O)cc2)n1Cc1ccccc1` [4-(4-benzyl-5-(methylthio)-4H-1,2,4-triazol-3-yl)phenol] was tested, and the “protein kinase against which the compound exhibits inhibitory activity (Table 3)” value [1] was “GSK3-α; also recorded: GSK3-β”.

In the case of `CCn1c(SCc2ccc(C(C)(C)C)cc2)nnc1-c1ccncc1` [4-(5-(4-tert-butylbenzylthio)-4-ethyl-4H-1,2,4-triazol-3-yl)pyridine], the “protein kinase against which the compound exhibits inhibitory activity (Table 3)” value [1] was “MAPKAPK-2”.

For `Cn1c(S)nnc1-c1ccc(NC(=O)c2ccccc2)cc1` [N-(4-(5-mercapto-4-methyl-4H-1,2,4-triazol-3-yl)phenyl)benzamide], the Kinase (test compound 10 μM) was “GSK3-α; also recorded: CHEK2”.

With `O=C(CSc1nnc(CNc2ccc(F)cc2)n1CC1CCCO1)N1CCCc2ccccc21` (stereo not shown) the Kinase (test compound 10 μM) was “AKT1”.

`FC(F)(F)c1cccc(-c2nnc(SCCc3ccccc3)[nH]2)c1` [3-(phenethylthio)-5-(3-(trifluoromethyl)phenyl)-4H-1,2,4-triazole] was tested, and the “protein kinase against which the compound exhibits inhibitory activity (Table 3)” value [1] was “AURORA-A; also recorded: GSK3-α”.

With `c1ccc(CCn2c(Cc3ccccc3)nnc2SCc2ccccc2)cc1` [3-benzyl-5-(benzylthio)-4-phenethyl-4H-1,2,4-triazole] the “protein kinase against which the compound exhibits inhibitory activity (Table 3)” value [1] was “AURORA-A”.

In the case of `COc1ccc(-n2c(CNc3cc(C(F)(F)F)ccc3Cl)nnc2SCc2ccccc2Cl)cc1`, the “protein kinase against which the compound exhibits inhibitory activity (Table 3)” value [1] was “CDK1”.

`Cc1nnc(SCC(=O)O)[nH]1` [2-(5-methyl-4H-1,2,4-triazol-3-ylthio)acetic acid] was tested, and the Kinase (test compound 10 μM) was “GSK3-β; also recorded: GSK3-α”.

For `O=C(CSc1nnc(-c2ccncc2)n1Cc1ccco1)Nc1cccc(O)c1`, the Kinase (test compound 10 μM) was “GSK3-β and GSK3-α and AKT3”.

With `CCC(=O)Nc1ccc(C(=O)CSc2nnc(-c3ccc(O)cc3)n2Cc2ccco2)cc1OC` the Kinase (test compound 10 μM) was “GSK3-β; also recorded: GSK3-α”.

`O=[N+]([O-])c1ccc(-c2nnc(CSc3nncn3-c3ccccn3)o2)cc1` was tested, and the “protein kinase against which the compound exhibits inhibitory activity (Table 3)” value [1] was “PDGFRR-α”.

`O=C(O)c1ccc(CSc2nnc(-c3cccnc3)[nH]2)cc1` [4-((5-(pyridin-3-yl)-4H-1,2,4-triazol-3-ylthio)methyl)benzoic acid] was tested, and the “protein kinase against which the compound exhibits inhibitory activity (Table 3)” value [1] was “AURORA-A; also recorded: DYRK2”.

`Cc1ccc(-n2c(S)nnc2CCc2nc3ccccc3[nH]2)cc1` [5-(2-(1H-benzo[d]imidazol-2-yl)ethyl)-4-p-tolyl-4H-1,2,4-triazole-3-thiol] was tested, and the Kinase (test compound 10 μM) was “GSK3-α; also recorded: GSK3-β”.

In the case of `Cc1ccc(-n2c(S)nnc2-c2ccccc2O)cc1` [2-(5-mercapto-4-p-tolyl-4H-1,2,4-triazol-3-yl)phenol], the Kinase (test compound 10 μM) was “AURORA-A”.

For `COc1ccc(-n2c(SCC#N)nnc2-c2ccc(NC(=O)c3ccccc3)cc2)cc1`, the Kinase (test compound 10 μM) was “CHEK2 and AKT1”.
